Test results published in patent US8022249B2, “Compounds for the treatment of metabolic disorders” (Wellstat Therapeutics Corporation, priority 2005, dated 2011).

Key:
ob/ob mice [1] = experiment: Serum glucose, triglycerides, free fatty acids and insulin in ob/ob mice; assay type: in vivo; conditions: male ob/ob mice, 100 mg/kg daily oral doses for two weeks
Description: Ob/ob mice have a defect in the gene for leptin, a protein involved in appetite regulation and energy metabolism, and are hyperphagic, obese, and insulin resistant. They develop hyperglycemia and fatty liver.
(§1) Male ob/ob mice were divided into four treatment groups comprising six mice each, and given daily oral doses of Vehicle (1% hydroxypropylmethylcellulose) or 100 mg/kg Compound CT, Compound CV, or Compound BI (a positive control) for two weeks. Blood samples were collected form the retro-orbital sinus and processed for serum chemistry measurements.

ob/ob mice [2] = experiment: Serum ALT and AST in ob/ob mice (animal model for NASH); assay type: in vivo; conditions: for ALT ± SD / AST ± SD: male ob/ob mice, 100 mg/kg daily oral doses for two weeks, serum
Description: as §1
Obese ob/ob mice develop chronic inflammatory fatty liver disease and are considered to be an animal model for nonalcoholic steatohepatitis (NASH), a condition which can lead toward progressive cirrhosis and liver dysfunction. In NASH, fat accumulation increases the susceptibility of the liver to inflammatory injury. One characteristic sign of NASH in patients is, in the absence of viral infection or alcoholism, elevated levels in serum of enzymes that are released from damaged hepatocytes, e.g. alanine aminotransferase (ALT) and Aspartate-aminotransferase (AST). These enzymes are elevated in ob/ob mice as a consequence of fatty liver and secondary inflammation. In Table 3, ALT and AST in serum samples from mice treated with Compound CT, Compound CV, and Compound BI are shown, as are enzyme levels in serum from control ob/ob mice treated only with vehicle. Treatment with Compound CT, Compound CV, and Compound BI reduced serum ALT and AST versus vehicle-treated ob/ob mice.

SMILES | Free Fatty Acids ± SD (ob/ob mice [1]) [µM] | Glucose ± SD (ob/ob mice [1]) [mg/dL] | Insulin ± SD (ob/ob mice [1]) [ng/mL] | Triglycerides ± SD (ob/ob mice [1]) [mg/dL] | ALT ± SD (ob/ob mice [2]) [U/L] | AST ± SD (ob/ob mice [2]) [U/L] | serum ALT and AST versus vehicle-treated ob/ob mice (in words) (ob/ob mice [2])
Cc1cccc(C)c1COc1cccc(C(=O)CCC(=O)O)c1 [Compound BI, 4-(3-(2,6-Dimethylbenzyloxy)phenyl)-4-oxobutyric acid, reference compound] | 874 ± 74 | 180 ± 19 | 1.1 ± 0.2 | 58 ± 2 | 330 ± 40 | 217 ± 24 | reduced
Cc1cccc(C)c1COc1cccc(CC(=O)NO)c1 [Compound CT, N-Hydroxy-2-[3-(2,6-dimethylbenzyloxy)phenyl]acetamide] | 894 ± 55 | 131 ± 21 | 3.1 ± 0.9 | 68 ± 6 | 230 ± 59 | 170 ± 23 | reduced
Cc1cccc(C)c1COc1cccc(CC(=O)NCCO)c1 [Compound CV, N-(2-Hydroxyethyl)-2-[3-(2,6-dimethylbenzyloxy)phenyl]acetamide] | 1070 ± 60 | 164 ± 10 | 5.0 ± 0.7 | 73 ± 5 | 484 ± 65 | 318 ± 48 | reduced
